Results published in ChEMBL document CHEMBL4616696, “Construction and Evaluation of Molecular Models: Guide and Design of Novel SE Inhibitors” (ACS Med Chem Lett, 2020).
In brackets after ≈: the same amount, converted by molar mass. Activity calls are given as the source filed them. The calls are words filed in the database; no cut-off is given here.

Experiments:
Candida albicans [1] = test: Antifungal activity against Candida albicans ATCC 10231 assessed as reduction in fungal growth by NCCLS method; type: functional
Candida tropicalis = test: Antifungal activity against Candida tropicalis ATCC 1369 assessed as reduction in fungal growth by NCCLS method; type: functional
Nakaseomyces glabratus = test: Antifungal activity against Candida glabrata ATCC 0001 assessed as reduction in fungal growth by NCCLS method; type: functional
Pichia kudriavzevii = test: Antifungal activity against Candida krusei ATCC 6258 assessed as reduction in fungal growth by NCCLS method; type: functional
Aspergillus fumigatus = test: Antifungal activity against Aspergillus fumigatus KM8001 assessed as reduction in fungal growth by NCCLS method; type: functional
Candida albicans [2] = test: Antifungal activity against fluconazole-resistant Candida albicans CaR assessed as reduction in fungal growth by NCCLS method; type: functional
Candida albicans [3] = test: Antifungal activity against fluconazole-resistant Candida albicans 17# assessed as reduction in fungal growth by NCCLS method; type: functional
Candida albicans [4] = test: Antifungal activity against fluconazole-resistant Candida albicans 901 assessed as reduction in fungal growth by NCCLS method; type: functional
Candida albicans [5] = test: Antifungal activity against fluconazole-resistant Candida albicans 632 assessed as reduction in fungal growth by NCCLS method; type: functional
Candida albicans [6] = test: Antifungal activity against fluconazole-resistant Candida albicans 904 assessed as reduction in fungal growth by NCCLS method; type: functional
[7] = biological target: T1, Squalene epoxidase ERG1 (Candida albicans) (UniProt Q92206); test: Inhibition of SE in Candida albicans ATCC SC5314 assessed as inhibition of ergosterol biosynthesis by measuring ergosterol content at 0.125 ug/ml incubated for 16 hrs by LC-MS analysis; parameters: scale not given: the % may be the effect or the level left
T1 sequence (whole entry): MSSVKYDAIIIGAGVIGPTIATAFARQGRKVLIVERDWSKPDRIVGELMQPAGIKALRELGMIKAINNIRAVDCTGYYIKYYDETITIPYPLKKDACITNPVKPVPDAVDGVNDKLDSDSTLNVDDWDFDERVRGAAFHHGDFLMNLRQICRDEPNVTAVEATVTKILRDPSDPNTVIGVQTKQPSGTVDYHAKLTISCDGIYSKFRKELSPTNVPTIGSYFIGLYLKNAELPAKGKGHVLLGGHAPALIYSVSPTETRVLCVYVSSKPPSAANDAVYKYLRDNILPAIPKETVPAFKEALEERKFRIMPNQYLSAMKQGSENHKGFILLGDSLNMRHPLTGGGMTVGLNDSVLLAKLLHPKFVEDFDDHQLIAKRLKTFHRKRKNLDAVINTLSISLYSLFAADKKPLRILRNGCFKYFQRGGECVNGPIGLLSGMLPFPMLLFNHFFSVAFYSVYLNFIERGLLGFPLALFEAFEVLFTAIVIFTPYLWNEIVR

[8] = biological target: T1, Squalene epoxidase ERG1 (Candida albicans); test: Inhibition of SE in Candida albicans ATCC SC5314 assessed as inhibition of ergosterol biosynthesis by measuring ergosterol content at 0.5 ug/ml incubated for 16 hrs by LC-MS analysis; parameters: scale not given: the % may be the effect or the level left
[9] = biological target: T1, Squalene epoxidase ERG1 (Candida albicans); test: Inhibition of SE in Candida albicans ATCC SC5314 assessed as inhibition of ergosterol biosynthesis by measuring ergosterol content at 4 ug/ml incubated for 16 hrs by LC-MS analysis; parameters: scale not given: the % may be the effect or the level left
[10] = biological target: T1, Squalene epoxidase ERG1 (Candida albicans); test: Inhibition of SE in Candida albicans ATCC SC5314 assessed as inhibition of ergosterol biosynthesis by measuring increase in squalene content at 0.125 ug/ml incubated for 16 hrs by LC-MS analysis relative to control; parameters: scale not given: the % may be the effect or the level left
[11] = biological target: T1, Squalene epoxidase ERG1 (Candida albicans); test: Inhibition of SE in Candida albicans ATCC SC5314 assessed as inhibition of ergosterol biosynthesis by measuring increase in squalene content at 0.5 ug/ml incubated for 16 hrs by LC-MS analysis relative to control; parameters: scale not given: the % may be the effect or the level left
[12] = biological target: T1, Squalene epoxidase ERG1 (Candida albicans); test: Inhibition of SE in Candida albicans ATCC SC5314 assessed as inhibition of ergosterol biosynthesis by measuring increase in squalene content at 4 ug/ml incubated for 16 hrs by LC-MS analysis relative to control; parameters: scale not given: the % may be the effect or the level left
[13] = biological target: T1, Squalene epoxidase ERG1 (Candida albicans); test: Inhibition of SE in Candida albicans ATCC SC5314 assessed as inhibition of ergosterol biosynthesis by measuring eburicol content at 0.5 ug/ml incubated for 16 hrs by LC-MS analysis; parameters: scale not given: the % may be the effect or the level left
[14] = biological target: T1, Squalene epoxidase ERG1 (Candida albicans); test: Inhibition of SE in Candida albicans ATCC SC5314 assessed as inhibition of ergosterol biosynthesis by measuring eburicol content at 4 ug/ml incubated for 16 hrs by LC-MS analysis; parameters: scale not given: the % may be the effect or the level left
[15] = biological target: T1, Squalene epoxidase ERG1 (Candida albicans); test: Inhibition of SE in Candida albicans ATCC SC5314 assessed as inhibition of ergosterol biosynthesis by measuring unknown sterol content at 0.125 ug/ml incubated for 16 hrs by LC-MS analysis; parameters: scale not given: the % may be the effect or the level left
[16] = biological target: T1, Squalene epoxidase ERG1 (Candida albicans); test: Inhibition of SE in Candida albicans ATCC SC5314 assessed as inhibition of ergosterol biosynthesis by measuring unknown sterol content at 0.5 ug/ml incubated for 16 hrs by LC-MS analysis; parameters: scale not given: the % may be the effect or the level left
[17] = biological target: T1, Squalene epoxidase ERG1 (Candida albicans); test: Inhibition of SE in Candida albicans ATCC SC5314 assessed as inhibition of ergosterol biosynthesis by measuring unknown sterol content at 4 ug/ml incubated for 16 hrs by LC-MS analysis; parameters: scale not given: the % may be the effect or the level left
Candida albicans [18] = test: Antifungal activity against Candida albicans ATCC SC5314 assessed as reduction in fungal growth density at 5 and 50 nmol/ml; type: functional, organism-based
Candida albicans [19] = test: Antifungal activity against Candida albicans ATCC SC5314 assessed as reduction in cell division at 4 ug/ml measured upto 48 hrs by TEM analysis; type: functional, organism-based
Candida albicans [20] = test: Antifungal activity against Candida albicans ATCC SC5314 assessed as cell wall disruption at 4 ug/ml measured upto 48 hrs by TEM analysis; type: functional, organism-based
Candida albicans [21] = test: Antifungal activity against Candida albicans ATCC SC5314 assessed as cell membrane disruption at 4 ug/ml measured upto 48 hrs by TEM analysis; type: functional, organism-based
[22] = Stability in human plasma assessed as compound remaining incubated for 60 mins; type: ADME, cell-free; conditions: read-out: Stability
[23] = Stability in human plasma assessed as compound remaining incubated for 120 mins; type: ADME, cell-free; conditions: read-out: Stability
Candida albicans [24] = test: Antifungal activity against Candida albicans ATCC SC5314 assessed as exudation of internal materials from cells at 4 ug/ml measured upto 48 hrs by TEM analysis; type: functional, organism-based

SMILES	MIC (Candida albicans [1]) [mg/L]	MIC (Candida tropicalis) [mg/L]	MIC (Nakaseomyces glabratus) [mg/L]	MIC (Pichia kudriavzevii) [mg/L]	MIC (Aspergillus fumigatus) [mg/L]	MIC (Candida albicans [2]) [mg/L]	MIC (Candida albicans [3]) [mg/L]	MIC (Candida albicans [4]) [mg/L]	MIC (Candida albicans [5]) [mg/L]	MIC (Candida albicans [6]) [mg/L]	other results
CN(CC(=O)Nc1ccccc1)C(=O)c1cccc2c1OCCO2	0.5 (≈ 1.53 µM)	1 (≈ 3.06 µM)	1 (≈ 3.06 µM)	0.5 (≈ 1.53 µM)	> 16	–	–	–	–	–	–
CN(CC(=O)NCc1ccccc1)C(=O)c1ccc2ccccc2c1	0.5 (≈ 1.5 µM)	0.25 (≈ 0.752 µM)	0.25 (≈ 0.752 µM)	0.5 (≈ 1.5 µM)	8 (≈ 24.1 µM)	–	–	–	–	–	–
CN(CC(=O)Nc1ccccc1)C(=O)c1ccc2c(c1)OCCO2	1 (≈ 3.06 µM)	0.5 (≈ 1.53 µM)	0.5 (≈ 1.53 µM)	2 (≈ 6.13 µM)	8 (≈ 24.5 µM)	–	–	–	–	–	–
OC(Cn1cncn1)(Cn1cncn1)c1ccc(F)cc1F [FLUCONAZOLE]	–	–	–	–	–	> 16	> 16	> 16	> 16	> 16	–
CN(CC(=O)Nc1ccccc1)C(=O)c1ccc2ccccc2c1	0.5 (≈ 1.57 µM)	0.5 (≈ 1.57 µM)	2 (≈ 6.28 µM)	1 (≈ 3.14 µM)	> 16	–	–	–	–	–	–
CN(C/C=C/c1ccccc1)Cc1cccc2ccccc12 [NAFTIFINE]	0.5 (≈ 1.74 µM)	0.5 (≈ 1.74 µM)	0.5 (≈ 1.74 µM)	1 (≈ 3.48 µM)	> 16	4 (≈ 13.9 µM)	8 (≈ 27.8 µM)	> 16	8 (≈ 27.8 µM)	8 (≈ 27.8 µM)	Activity [7]: 83.6%; Activity [8]: 62.9%; Activity [9]: 28.4%; Activity [10]: 14.8%; Activity [11]: 31.5%; Activity [12]: 64.5%; Activity [13]: 0.7%; Activity [14]: 1.7%; Activity [15]: 1.6%; Activity [16]: 4.9%; Activity [17]: 5.4%
CN(CC(=O)NCc1ccccc1)C(=O)c1cccc2ccccc12	0.125 (≈ 0.376 µM)	0.5 (≈ 1.5 µM)	0.25 (≈ 0.752 µM)	0.125 (≈ 0.376 µM)	4 (≈ 12 µM)	4 (≈ 12 µM)	4 (≈ 12 µM)	4 (≈ 12 µM)	8 (≈ 24.1 µM)	> 16	Activity (Candida albicans [18]): Active; Activity (Candida albicans [19]): Active; Activity (Candida albicans [20]): Active; Activity (Candida albicans [21]): Active; remaining at 1 h [22]: 94.5%; remaining at 2 h [23]: 91.6%; Activity [7]: 87.4%; Activity [8]: 63.9%; Activity [9]: 31.7%; Activity [10]: 9.8%; Activity [11]: 29.5%; Activity [12]: 58.9%; Activity [13]: 1.6%; Activity [14]: 2.3%; Activity [15]: 2.8%; Activity [16]: 5%; Activity [17]: 7.1%; Activity (Candida albicans [24]): Active
CN(CC(=O)NCc1ccccc1)C(=O)c1cccc2c1OCCO2	0.25 (≈ 0.734 µM)	0.5 (≈ 1.47 µM)	0.25 (≈ 0.734 µM)	0.25 (≈ 0.734 µM)	8 (≈ 23.5 µM)	4 (≈ 11.8 µM)	> 16	> 16	> 16	8 (≈ 23.5 µM)	remaining at 1 h [22]: 87.3%; remaining at 2 h [23]: 83.5%
CN(CC(=O)NCc1ccccc1)C(=O)c1ccc2c(c1)OCCO2	0.5 (≈ 1.47 µM)	0.5 (≈ 1.47 µM)	2 (≈ 5.88 µM)	0.5 (≈ 1.47 µM)	> 16	–	–	–	–	–	–
CN(CC(=O)Nc1ccccc1)C(=O)c1cccc2ccccc12	0.25 (≈ 0.785 µM)	0.5 (≈ 1.57 µM)	0.5 (≈ 1.57 µM)	0.25 (≈ 0.785 µM)	8 (≈ 25.1 µM)	8 (≈ 25.1 µM)	> 16	4 (≈ 12.6 µM)	> 16	> 16	–
